Experimental findings from publication PMC8015227, “Understanding the Metabolism of Proteolysis Targeting Chimeras (PROTACs): The Next Step toward Pharmaceutical Applications” (Journal of Medicinal Chemistry, 2020) are described below.

Like-named read-outs stand apart in the source and are kept apart here.

The nature of this data set: Metabolic stability in cryopreserved human hepatocytes. Format: in vitro ADME. Particulars: human, cryopreserved human hepatocytes (pooled, suspension).
Where [1] appears, read: Figures 3-5, cryopreserved human hepatocytes, read-out: half-life (t1/2).
Setting [2] is: Table S1, PROTACs, cryopreserved human hepatocytes, read-out: t1/2.
Where [3] appears, read: supplement CSV, human hepatocytes, read-out: HLH t1/2.

Experimental: Cryopreserved human hepatocytes (pooled suspension hepatocytes, Gibco) were thawed placing in a 37 °C shaking water bath according to the manufacturer’s specifications and resuspended in Williams E medium (WEM) to have 1 × 10^6 cells/mL. Samples with the test compound at 1 μM were incubated at 37 °C, and aliquots of 50 μL were collected at 0, 10, 30, 60, 120, and 240 min. The incubations were quenched 1:3 with ice-cold acetonitrile (containing 1 μM labetalol as the internal standard). Samples were then centrifuged at 12000 rpm for 5 min at 4 °C. The supernatant was concentrated by evaporation under a nitrogen stream and reconstituted with DMSO. Blank was prepared similarly but in the absence of the investigated compounds.
A Thermo Q-exactive mass spectrometer (Thermo Fisher Scientific, Waltham, MA) was used. The LC system, governed by Chromeleon X-press software, consists of a Binary pump, a thermostated autosampler, and a column compartment, all Dionex Ultimate 3000 series modules (Thermo Fisher Scientific, Waltham, MA). A volume of 2 μL was injected for each sample. Chromatographic separation of analytes was conducted in reverse-phase chromatography. In brief, a Luna Omega 1.6 μm Polar (C18, 2.1 mm × 150 mm) was used, and the mobile phases consisted of water (A) and acetonitrile (B), both containing formic acid at 0.1%. The LC flow was set at 0.400 mL/min in a 12 min gradient elution as follows: 99.5:0.5 (A/B) to 5:95 (A/B) over 10 min, 5:95 (A/B) for 2 min, and then reversion back to 99.5:0.5 (A/B) over 2.5 min. The column was operating at a constant temperature of 40 °C.

Consider `Cc1sc2c(c1C)C(c1ccc(Cl)cc1)=N[C@@H](CC(=O)NCCCCCCCCNC(=O)COc1cccc3c1C(=O)N(C1CCC(=O)NC1=O)C3=O)c1nnc(C)n1-2` (some centres unmarked) [Compound 2, dBet6, reference compound], for which the half-life at 1 µM was 0.303 h under setting [1], 0.303 h under setting [2] and 0.303 h under setting [3].

On to `Cc1sc2c(c1C)C(c1ccc(Cl)cc1)=N[C@@H](CC(=O)Nc1ccc(OCCOCCOCCOCCNc3cccc4c3C(=O)N(C3CCC(=O)NC3=O)C4=O)cc1)c1nnc(C)n1-2` (some centres unmarked) [Compound 3, ARV-825, reference compound], for which the half-life at 1 µM by setting is: under setting [2], 0.462 h; under setting [3], 0.462 h.

With `Cc1sc2c(c1C)C(c1ccc(Cl)cc1)=N[C@@H](CC(=O)NCCCN1CCN(CCCNc3cccc4c3C(=O)N(C3CCC(=O)NC3=O)C4=O)CC1)c1nnc(C)n1-2` (stereo partly drawn) [Compound 6, 2-((S)-4-(4-Chlorophenyl)-2,3,9-trimethyl-6H-thieno[3,2-f][1,2,4]triazolo[4,3-a][1,4]diazepin-6-yl)-N-(3-(4-(3-((2-(2,6-dioxopiperidin-3-yl)-1,3-dioxoisoindolin-4-yl)amino)propyl)piperazin-1-yl)propyl)acetamide], the half-life at 1 µM came out at 1.45 h under setting [1], 1.45 h under setting [2] and 1.45 h under setting [3].

Consider `Cc1ncsc1-c1ccc(CNC(=O)[C@@H]2C[C@@H](O)CN2C(=O)[C@@H](NC(=O)COCCOCCOCCNC(=O)C[C@@H]2N=C(c3ccc(Cl)cc3)c3c(sc(C)c3C)-n3c(C)nnc32)C(C)(C)C)cc1` [Compound 7, MZ1, reference compound], for which the half-life at 1 µM runs as follows: under setting [2], 3.5 h; under setting [3], 3.5 h.

On to `Cc1ncsc1-c1ccc([C@H](C)NC(=O)[C@@H]2C[C@@H](O)CN2C(=O)[C@@H](NC(=O)CCCCCCNC(=O)C[C@@H]2N=C(c3ccc(Cl)cc3)c3c(sc(C)c3C)-n3c(C)nnc32)C(C)(C)C)cc1` [Compound 8, (2S,4R)-1-((S)-2-(7-(2-((S)-4-(4-Chlorophenyl)-2,3,9-trimethyl-6H-thieno[3,2-f][1,2,4]triazolo[4,3-a][1,4]diazepin-6-yl)acetamido)heptanamido)-3,3-dimethylbutanoyl)-4-hydroxy-N-((S)-1-(4-(4-methylthiazol-5-yl)phenyl)ethyl)pyrrolidine-2-carboxamide], for which the half-life at 1 µM is, setting by setting: under setting [2], 1.36 h; under setting [3], 1.36 h.

Take `Cc1ncsc1-c1ccc([C@H](C)NC(=O)[C@@H]2C[C@@H](O)CN2C(=O)[C@@H](NC(=O)COCCOCCNC(=O)C[C@@H]2N=C(c3ccc(Cl)cc3)c3c(sc(C)c3C)-n3c(C)nnc32)C(C)(C)C)cc1` [Compound 9, (2S,4R)-1-((S)-2-(tert-Butyl)-14-((S)-4-(4-chlorophenyl)-2,3,9-trimethyl-6H-thieno[3,2-f][1,2,4]triazolo[4,3-a][1,4]diazepin-6-yl)-4,13-dioxo-6,9-dioxa-3,12-diazatetradecanoyl)-4-hydroxy-N-((S)-1-(4-(4-methylthiazol-5-yl)phenyl)ethyl)pyrrolidine-2-carboxamide]: the half-life at 1 µM is, setting by setting: under setting [2], 2.28 h; under setting [3], 2.28 h.

With `Cc1ncsc1-c1ccc([C@H](C)NC(=O)[C@@H]2C[C@@H](O)CN2C(=O)[C@@H](NC(=O)COCCCOCCNC(=O)C[C@@H]2N=C(c3ccc(Cl)cc3)c3c(sc(C)c3C)-n3c(C)nnc32)C(C)(C)C)cc1` [Compound 10, ARV-771, reference compound], the half-life at 1 µM was 2.52 h under setting [2] and 2.52 h under setting [3].

As to `O=C(COc1cccc2c1C(=O)N(C1CCC(=O)NC1=O)C2=O)NCCCCCCCCNC(=O)c1ccc2c(c1)nc(Nc1cccc(Cl)c1)c1ccncc12` (centres unmarked) [Compound 12, 5-((3-Chlorophenyl)amino)-N-(8-(2-((2-(2,6-dioxopiperidin-3-yl)-1,3-dioxoisoindolin-4-yl)oxy)acetamido)octyl)benzo[c][2,6]naphthyridine-8-carboxamide], the half-life at 1 µM by setting is: under setting [2], 0.69 h; under setting [3], 0.69 h.

With `O=C(COc1cccc2c1C(=O)N(C1CCC(=O)NC1=O)C2=O)NCCCCCCCCCCNC(=O)c1ccc2c(c1)nc(Nc1cccc(Cl)c1)c1ccncc12` (centres unmarked) [Compound 13, 5-((3-Chlorophenyl)amino)-N-(10-(2-((2-(2,6-dioxopiperidin-3-yl)-1,3-dioxoisoindolin-4-yl)oxy)acetamido)decyl)benzo[c][2,6]naphthyridine-8-carboxamide], the half-life at 1 µM is, setting by setting: under setting [2], 0.56 h; under setting [3], 0.56 h.

For the molecule `O=C(COc1cccc2c1C(=O)N(C1CCC(=O)NC1=O)C2=O)NCCOCCOCCOCCNC(=O)c1ccc2c(c1)nc(Nc1cccc(Cl)c1)c1ccncc12` (centres unmarked) [Compound 14, 5-((3-Chlorophenyl)amino)-N-(1-((2-(2,6-dioxopiperidin-3-yl)-1,3-dioxoisoindolin-4-yl)oxy)-2-oxo-6,9,12-trioxa-3-azatetradecan-14-yl)benzo[c][2,6]naphthyridine-8-carboxamide], the half-life at 1 µM under setting [2] was 1.28 h and the half-life at 1 µM under setting [3] came out at 1.28 h.

With `O=C1CCC(N2C(=O)c3cccc(NCCCCCCNC(=O)c4ccc5c(c4)nc(Nc4cccc(Cl)c4)c4ccncc45)c3C2=O)C(=O)N1` (centres unmarked) [Compound 16, 5-((3-Chlorophenyl)amino)-N-(6-((2-(2,6-dioxopiperidin-3-yl)-1,3-dioxoisoindolin-4-yl)amino)hexyl)benzo[c][2,6]naphthyridine-8-carboxamide], the half-life at 1 µM is, setting by setting: under setting [2], 0.578 h; under setting [3], 0.578 h.

As for `Cc1ncsc1-c1ccc([C@H](C)NC(=O)[C@@H]2C[C@@H](O)CN2C(=O)[C@@H](NC(=O)CCCCNC(=O)c2ccc3c(c2)nc(Nc2cccc(Cl)c2)c2ccncc23)C(C)(C)C)cc1` [Compound 17, 5-((3-Chlorophenyl)amino)-N-(5-(((S)-1-((2S,4R)-4-hydroxy-2-(((S)-1-(4-(4-methylthiazol-5-yl)phenyl)ethyl)carbamoyl)pyrrolidin-1-yl)-3,3-dimethyl-1-oxobutan-2-yl)amino)-5-oxopentyl)benzo[c][2,6]naphthyridine-8-carboxamide], the half-life at 1 µM under setting [1] was 3.4 h, the half-life at 1 µM under setting [2] turned out to be 3.4 h and the half-life at 1 µM under setting [3] worked out at 3.4 h.

As for `Cc1ncsc1-c1ccc([C@H](C)NC(=O)[C@@H]2C[C@@H](O)CN2C(=O)[C@@H](NC(=O)CCCCCCNC(=O)c2ccc3c(c2)nc(Nc2cccc(Cl)c2)c2ccncc23)C(C)(C)C)cc1` [Compound 18, 5-((3-Chlorophenyl)amino)-N-(7-(((S)-1-((2S,4R)-4-hydroxy-2-(((S)-1-(4-(4-methylthiazol-5-yl)phenyl)ethyl)carbamoyl)pyrrolidin-1-yl)-3,3-dimethyl-1-oxobutan-2-yl)amino)-7-oxoheptyl)benzo[c][2,6]naphthyridine-8-carboxamide], the half-life at 1 µM came to 3.48 h under setting [1], 3.48 h under setting [2] and 3.48 h under setting [3].

As for `Cc1ncsc1-c1ccc([C@H](C)NC(=O)[C@@H]2C[C@@H](O)CN2C(=O)[C@@H](NC(=O)COCCCNC(=O)c2ccc3c(c2)nc(Nc2cccc(Cl)c2)c2ccncc23)C(C)(C)C)cc1` [Compound 19, 5-((3-Chlorophenyl)amino)-N-(3-(2-(((S)-1-((2S,4R)-4-hydroxy-2-(((S)-1-(4-(4-methylthiazol-5-yl)phenyl)ethyl)carbamoyl)pyrrolidin-1-yl)-3,3-dimethyl-1-oxobutan-2-yl)amino)-2-oxoethoxy)propyl)benzo[c][2,6]naphthyridine-8-carboxamide], the half-life at 1 µM under setting [2] is 2.65 h and the half-life at 1 µM under setting [3] is 2.65 h.

Regarding `Cc1ncsc1-c1ccc([C@H](C)NC(=O)[C@@H]2C[C@@H](O)CN2C(=O)[C@@H](NC(=O)CN2CCN(C(=O)c3ccc4c(c3)nc(Nc3cccc(Cl)c3)c3ccncc34)CC2)C(C)(C)C)cc1` [Compound 20, (2S,4R)-1-((S)-2-(2-(4-(5-((3-Chlorophenyl)amino)benzo[c][2,6]naphthyridine-8-carbonyl)piperazin-1-yl)acetamido)-3,3-dimethylbutanoyl)-4-hydroxy-N-((S)-1-(4-(4-methylthiazol-5-yl)phenyl)ethyl)pyrrolidine-2-carboxamide], the half-life at 1 µM was found to be 3.63 h under setting [1], 3.63 h under setting [2] and 3.63 h under setting [3].

`O=C1CCC(N2C(=O)c3cccc(NCCCCCCCCCCC(=O)N4CCN(C(=O)c5cc(Cc6n[nH]c(=O)c7ccccc67)ccc5F)CC4)c3C2=O)C(=O)N1` (centres unmarked) [Compound 21, 2-(2,6-Dioxopiperidin-3-yl)-4-((11-(4-(2-fluoro-5-((4-oxo-3,4-dihydrophthalazin-1-yl)methyl)benzoyl)piperazin-1-yl)-11-oxoundecyl)amino)isoindoline-1,3-dione]: the half-life at 1 µM under setting [2] was determined as 0.262 h and the half-life at 1 µM under setting [3] was determined as 0.262 h.

As to `Cc1ncsc1-c1ccc([C@H](C)NC(=O)[C@@H]2C[C@@H](O)CN2C(=O)[C@@H](NC(=O)CCCCCCCCCCC(=O)N2CCN(C(=O)c3cc(Cc4n[nH]c(=O)c5ccccc45)ccc3F)CC2)C(C)(C)C)cc1` [Compound 22, (2S,4R)-1-((S)-2-(12-(4-(2-Fluoro-5-((4-oxo-3,4-dihydrophthalazin-1-yl)methyl)benzoyl)piperazin-1-yl)-12-oxododecanamido)-3,3-dimethylbutanoyl)-4-hydroxy-N-((S)-1-(4-(4-methylthiazol-5-yl)phenyl)ethyl)pyrrolidine-2-carboxamide], the half-life at 1 µM stood at 1.58 h under setting [2] and 1.58 h under setting [3].

`Cc1ncsc1-c1ccc([C@H](C)NC(=O)[C@@H]2C[C@@H](O)CN2C(=O)[C@@H](NC(=O)CCCCCCC(=O)N2CCN(C(=O)c3cc(Cc4n[nH]c(=O)c5ccccc45)ccc3F)CC2)C(C)(C)C)cc1` [Compound 23, (2S,4R)-1-((S)-2-(8-(4-(2-Fluoro-5-((4-oxo-3,4-dihydrophthalazin-1-yl)methyl)benzoyl)piperazin-1-yl)-8-oxooctanamido)-3,3-dimethylbutanoyl)-4-hydroxy-N-((S)-1-(4-(4-methylthiazol-5-yl)phenyl)ethyl)pyrrolidine-2-carboxamide]: the half-life at 1 µM under setting [2] turned out to be 1.52 h and the half-life at 1 µM under setting [3] came to 1.52 h.
